From ChEMBL document CHEMBL1148207, “Dictyosphaeric acids A and B: new decalactones from an undescribed Penicillium sp. obtained from the alga Dictyosphaeria versluyii” (2004) come the findings set out here.

The structures appear in SMILES notation. Calls of active or inactive are those of the source. No cut-off for these calls is given here.

In experiment [1] the test system is Staphylococcus aureus. As to the kind of experiment: Antibacterial activity against methicillin-resistant Staphylococcus aureus at 50 ug/well. It is filed as functional.
Experiment [2] has as its system Candida albicans. The experiment can be described thus: Antimicrobial activity against Candida albicans at 50 ug/well. It is filed as functional.
For experiment [3], the system named is Staphylococcus aureus. As to the kind of experiment: Antibacterial activity against methicillin-sensitive Staphylococcus aureus at 50 ug/well. In kind it is functional.
Experiment [4] concerns Enterococcus faecium. The experiment can be described thus: Antibacterial activity against vancomycin-resistant Enterococcus faecium at 50 ug/well. It is filed as functional.
The subject of experiment [5] is Enterococcus faecium. The experiment can be described thus: Antibacterial activity against vancomycin-resistant Enterococcus faecium at 200 ug/well. It is filed as functional, organism-based.
For experiment [6], the system named is Staphylococcus aureus. As to the kind of experiment: Antibacterial activity against methicillin-sensitive Staphylococcus aureus at 200 ug/well. In kind it is functional, organism-based.
The subject of experiment [7] is Staphylococcus aureus. The experiment can be described thus: Antibacterial activity against methicillin-resistant Staphylococcus aureus at 200 ug/well. It is filed as functional, organism-based.
The test system of experiment [8] is Candida albicans. The experiment can be described thus: Antimicrobial activity against Candida albicans at 200 ug/well. In kind it is functional, organism-based.

In the case of `C[C@H]1CCC[C@@H](O)[C@]2(O)C(=O)C[C@H](O)[C@@H]3OC(/C=C/C=C/C=C/C(=O)O)=C(C(=O)O1)[C@@H]32`, the outcome in experiment [1], in experiment [2], in experiment [3] and in experiment [4] was inactive.
On to `C[C@H]1CCC[C@@H](O)[C@]2(O)C(=O)C=C[C@@H]3OC(/C=C/C=C/C=C/C(=O)O)=C(C(=O)O1)[C@@H]32` [DICTYOSPHAERIC ACID A], for which the zone of inhibition at 50 µg/disc in experiment [1] (read-out: IZ) was found to be 12 mm; in experiment [2] (read-out: IZ), 7 mm; in experiment [3] (read-out: IZ) it was 11 mm; in experiment [4] (read-out: IZ), 7 mm.
In the case of `COc1cc(CO)cc2c1C(=O)c1c(O)cc(O)cc1C2=O`, the outcome in experiment [1], in experiment [5], in experiment [2], in experiment [3], in experiment [6] and in experiment [7] was inactive. Further, the result in experiment [4] and in experiment [8] was inactive.
